According to patent EP0013144A1, “Substituted diphenylamine derivatives, compositions and herbicidal uses thereof, and processes for their preparation” (ICI AUSTRALIA LIMITED, priority 1978, dated 1980):

Tests used:
Format in all cases: in vivo
Wheat [1] = assay: Pre-emergence herbicidal activity (Example 31); design: key: 0-3 scale: 0 = 0-25% damage, 3 = 75-99% kill, 3+ = 100% kill; conditions: after three weeks
Method: (§1) Concentrated formulations of the compounds of the invention were prepared by: • a) in the case of oils and waxy solids, dissolving the compound in toluene containing 7% v/v "Teric" N13 ("Teric" is a Trade MarK and "Teric" N13, a product of ethoxylation of nonylphenol, is available from ICI Australia Limited) and 3% v/v "Kemmat" SC15B ("Kemmat" is a Trade Mark and "Kemmat" SC15B is a formulation of calcium dodecylbenzene sulfonate); or • b) in the case of crystalline solids, adding 5 parts by weight of the compound and 1 part by weight of . ''Dyapol" PT ("Dyapol" is a Trade Mark and "Dyapol" PT is an anionic suspending agent) to 94 parts by weight of an aqueous solution containing 0.25% v/v of "Teric" N8 (a product of ethoxylation of nonylphenol) and ball-milling the mixture to produce a stable suspension. The emulsifiable concentrates and suspensions were then diluted with water to give an aqueous composition of the required concentration suitable for use in the evaluation of the pre-emergence and post-emergence herbicidal activity of the compounds of the invention.
(§2) The pre-emergent herbicidal activity of the compounds of the invention formulated as described in Example 30 was assessed by the following procedure.
(§3) The seeds of the test species were sown in rows 2 cm deep in soil contained in seed boxes. The monocotyledonous plants and the dicotyledonous plants were sprayed with the required quantity of a composition of the invention. Two duplicate seed Doxes were prepared in the same manner but were not sprayed with a composition of the invention and were used for comparison purposes. All the boxes were placed in a glasshouse, lightly watered with an overhead spray to initiate germination and then sub-irrigated as required for optimum plant growth. After three weeks the boxes were removed from the glasshouse and the effect of the treatment was visually assessed. The results are presented in Table 3 where the damage to plants is rated on a scale of from 0 to 3 where 0 represents from 0 to 25% damage, 3 represents 75 to 99% kill and 3+ represents 100% kill.
(§4) A dash (-) means that no experiment was carried out.

Ryegrass [2] = assay: Pre-emergence herbicidal activity (Example 31); design: key: 0-3 scale: 0 = 0-25% damage, 3 = 75-99% kill, 3+ = 100% kill; conditions: after three weeks
Method: as §1, §2, §3, §4

Mustard [3] = assay: Pre-emergence herbicidal activity (Example 31); conditions: after three weeks
Method: as §1, §2, §3, §4

Sunflower [4] = assay: Pre-emergence herbicidal activity (Example 31); conditions: after three weeks
Method: as §1, §2, §3, §4

Ipomea [5] = assay: Pre-emergence herbicidal activity (Example 31); conditions: after three weeks
Method: as §1, §2, §3, §4

Wild Oats = assay: Post-emergence herbicidal activity (Example 32); conditions: 3 weeks after spraying
Method: as §1
(§5) The post-emergent herbicidal activity of the compounds of the invention formulated as described in Example 30 was assessed by the following procedure.
(§6) The seeds of the test species were sown in rows 2 cm deep in soil contained in seed boxes. The monocotyledonous plants and the dicotyledonous plants were sown in separate seed boxes in duplicate. The four seed boxes were placed in a glasshouse, lightly watered with an overhead spray to initiate germination and then sub-irrigated as required for optimum plant growth. After the plants had grown to a height of about 10 to 12.5 cm one box of each of the monocotyledonous plants and the dicotyledonous plants was removed from the glasshouse and sprayed with the required quantity of a composition of the invention. After spraying the boxes were returned to the glasshouse for further 3 weeks and the effects of the treatment was visually assessed by comparison with the untreated controls. The results are presented in Table 4 where the damage to plants is rated on a scale of from 0 to 3 where 0 represents 0 to 25% damage, 3 represents 75 to 99% kill and 3+ represents 100% kill. A dash (-) means that no experiment was carried out.

Japanese millet = assay: Post-emergence herbicidal activity (Example 32); conditions: 3 weeks after spraying
Method: as §1, §5, §6

Mustard [6] = assay: Post-emergence herbicidal activity (Example 32); conditions: 3 weeks after spraying
Method: as §1, §5, §6

Ryegrass [7] = assay: Post-emergence herbicidal activity (Example 32); conditions: 3 weeks after spraying
Method: as §1, §5, §6

Sunflower [8] = assay: Post-emergence herbicidal activity (Example 32); conditions: 3 weeks after spraying
Method: as §1, §5, §6

Ipomea [9] = assay: Post-emergence herbicidal activity (Example 32); conditions: 3 weeks after spraying
Method: as §1, §5, §6

Wheat [10] = assay: Post-emergence herbicidal activity (Example 32); design: key: 0-3 scale: 0 = 0-25% damage, 3 = 75-99% kill, 3+ = 100% kill; conditions: 3 weeks after spraying
Method: as §1, §5, §6

CC(Oc1ccc(N(C)c2ccc(C(F)(F)F)cc2[N+](=O)[O-])cc1)C(=O)OC1CCCCC1 (stereo not shown) [Compound 80]
3+ (3+ represents 100% kill): damage to plants, Rg (Ryegrass [2]; 5 kg/ha) | damage to plants, Ot (Wild Oats; 1 kg/ha) | damage to plants, Ot (Wild Oats; 5 kg/ha) | damage to plants, Jm (Japanese millet; 1 kg/ha) | damage to plants, Jm (Japanese millet; 5 kg/ha) | damage to plants, Rg (Ryegrass [7]; 5 kg/ha)
3 (3 represents 75 to 99% kill): damage to plants, Rg (Ryegrass [2]; 1 kg/ha) | damage to plants, Rg (Ryegrass [7]; 1 kg/ha) | damage to plants, Wh (Wheat [10]; 5 kg/ha)
0 (0 represents from 0 to 25% damage): damage to plants, Wh (Wheat [1]; 1 kg/ha) | damage to plants, Ms (Mustard [3]; 1 kg/ha) | damage to plants, Ms (Mustard [3]; 5 kg/ha) | damage to plants, Sf (Sunflower [4]; 1 kg/ha) | damage to plants, Sf (Sunflower [4]; 5 kg/ha) | damage to plants, Ip (Ipomea [5]; 1 kg/ha) | damage to plants, Ip (Ipomea [5]; 5 kg/ha)
0 (0 represents 0 to 25% damage): damage to plants, Ms (Mustard [6]; 1 kg/ha) | damage to plants, Ms (Mustard [6]; 5 kg/ha) | damage to plants, Sf (Sunflower [8]; 1 kg/ha) | damage to plants, Sf (Sunflower [8]; 5 kg/ha) | damage to plants, Ip (Ipomea [9]; 1 kg/ha) | damage to plants, Ip (Ipomea [9]; 5 kg/ha)
1: damage to plants, Wh (Wheat [1]; 5 kg/ha) | damage to plants, Wh (Wheat [10]; 1 kg/ha)

COC(=O)C(C)Oc1ccc(Nc2ccc(C)cc2[N+](=O)[O-])cc1 (stereo not shown) [Compound 26]
3 (3 represents 75 to 99% kill): damage to plants, Jm (Japanese millet; 1 kg/ha) | damage to plants, Rg (Ryegrass [7]; 1 kg/ha) | damage to plants, Rg (Ryegrass [7]; 5 kg/ha) | damage to plants, Wh (Wheat [10]; 5 kg/ha)
2: damage to plants, Rg (Ryegrass [2]; 1 kg/ha) | damage to plants, Wh (Wheat [10]; 1 kg/ha)
1: damage to plants, Wh (Wheat [1]; 5 kg/ha) | damage to plants, Ot (Wild Oats; 1 kg/ha) | damage to plants, Ot (Wild Oats; 5 kg/ha)
0 (0 represents 0 to 25% damage): damage to plants, Ms (Mustard [6]; 1 kg/ha) | damage to plants, Ms (Mustard [6]; 5 kg/ha) | damage to plants, Sf (Sunflower [8]; 1 kg/ha) | damage to plants, Sf (Sunflower [8]; 5 kg/ha) | damage to plants, Ip (Ipomea [9]; 1 kg/ha) | damage to plants, Ip (Ipomea [9]; 5 kg/ha)
0 (0 represents from 0 to 25% damage): damage to plants, Wh (Wheat [1]; 1 kg/ha) | damage to plants, Ms (Mustard [3]; 1 kg/ha) | damage to plants, Ms (Mustard [3]; 5 kg/ha) | damage to plants, Sf (Sunflower [4]; 1 kg/ha) | damage to plants, Sf (Sunflower [4]; 5 kg/ha) | damage to plants, Ip (Ipomea [5]; 1 kg/ha) | damage to plants, Ip (Ipomea [5]; 5 kg/ha)
3+ (3+ represents 100% kill): damage to plants, Rg (Ryegrass [2]; 5 kg/ha) | damage to plants, Jm (Japanese millet; 5 kg/ha)

COC(=O)C(C)Oc1ccc(N(C)c2ccc(C(F)(F)F)cc2)cc1 (stereo not shown) [Compound 14, Methyl 2-[4-(4-trifluoromethyl-N-methylanilino)phenoxy]-propionate]
3+ (3+ represents 100% kill): damage to plants, Ms (Mustard [6]; 5 kg/ha) | damage to plants, Ip (Ipomea [9]; 5 kg/ha)
2: damage to plants, Sf (Sunflower [8]; 5 kg/ha)
3 (3 represents 75 to 99% kill): damage to plants, Jm (Japanese millet; 5 kg/ha)
0 (0 represents 0 to 25% damage): damage to plants, Ot (Wild Oats; 5 kg/ha) | damage to plants, Rg (Ryegrass [7]; 5 kg/ha) | damage to plants, Wh (Wheat [10]; 5 kg/ha)
